This note sets out measurements from patent publication US9499601B2, “Molecular probe for sphingolipids” (Agency for Science, Technology and Research, priority 2006, dated 2016).

Where no end group is shown, it is not given here.

The subject of test [1] is neuroblastoma cells. In words: Live-cell uptake after glycosphingolipid depletion with Fumonisin B1. In kind it is cell-based, human. To be noted: 10 μM FB1.
The test system of test [2] is Drosophila c6 neuronal cells. Kind of test: Labelling of Drosophila c6 neuronal cells with SBD, SBD* and SBD^scr peptides. It counts as cell-based.
The nature of test [3]: Lipid-protein overlay (fat blot). In kind it is binding.
Test [4] in a line: Lipid-protein overlay (fat blot). In kind it is binding. The settings on record: Sphingostrips, relatively low amounts of lipids (100 nmole equivalents).
Test [5] can be described thus: Lipid-protein overlay (fat blot). In kind it is binding. This is another data set of the same source.
Test [6] is described as follows: Lipid-protein overlay (fat blot). It counts as binding, bovine.
Test [7] is described as follows: Lipid-protein overlay (fat blot). It counts as binding. The source holds these as a separate data set.
Test [8] concerns detergent resistant membrane fractions from human neuroblastomas, SH-SY5Y. Kind of test: Dot blot binding to isolated DRM density-gradient fractions. The settings on record: fractions 1-12, 1 top (detergent insoluble).
Test [9] deals with liposomes of raft-like composition (SM:Ch:POPC) with or without GM1, GD1a, GCB; POPC liposomes. Kind of test: Liposome binding, fluorescence retained after centrifugal filtration. The settings on record: control.
Test [10] deals with SH-SY5Y neuroblastoma. Kind of test: Live-cell uptake under cholesterol depletion (MβCD). It counts as cell-based, human. To be noted: only after 2 h of cholesterol depletion.
Test [11] deals with Drosophila c6 cells. In words: Cholesterol depletion measured with Amplex Red Cholesterol Assay kit. It counts as cell-based. The settings on record: for reduction of cholesterol: 10 mM, 30 min, whole cell lysates. As to the method:
Cholesterol depletion and overload: Cells were incubated in 4 mM or 10 mM Methyl-β-cyclo-dextrin (MβCD) (Sigma, USA) for 30 min in serum-free medium, and washed. AMPLEX RED™ Cholesterol Assay kit (Invitrogen) was used to measure cholesterol concentrations in cell extracts before OPTIPREP™ gradient formation and later on DRM fractions generated. For cholesterol excess, 10 mM MβCD-cholesterol-complexes were prepared as described previously and incubated with cells at 25° C. for 30 min before labelling. After treatment cells were further incubated in complete medium with FBS.
Drug treatments: For cholesterol depletion cells were incubated in 10 mM Methyl-b-cyclo-dextrin (MbCD) (Sigma, USA) for 30 min in serum-free medium, and washed. AMPLEX RED™ Cholesterol Assay kit (Invitrogen) was used to measure cholesterol concentrations in cell extracts before OPTIPREP™ gradient formation and later on DRM fractions generated.
Treatments that inhibit cholesterol synthesis or that remove cholesterol from membranes are known to disrupt lipid rafts. Methyl-β-cyclo-dextrin (MβCD) was used to deplete Drosophila c6 (FIG. 13) and neuroblastoma cells (data not shown) of cholesterol and related sterols (see Methods), and looked at the effect on SBD binding. First, the effectiveness of the MβCD treatment was tested by measuring total cholesterol levels using the AMPLEX RED™ kit (Invitrogen). On c6 cells, cholesterol was reduced by 42% after 30 min, and the distribution of the remaining cholesterol became more uniform across the density gradient (FIG. 13C).

The mark [12] stands for this setting: spotted strips, 1000-2000 nmole equivalents lipid.
The mark [13] stands for this setting: spotted strips, 1000-2000 nmole equivalents lipid, listed as scrambled version of the peptide.
The mark [14] stands for this setting: peptide at higher concentrations (20 μM).
Where [15] appears, read: peptide at higher concentrations (20 μM), listed as mutated peptide.

With “Transferrin-Alexa594: marker of clathrin-mediated uptake”, the entries for the “uptake after Fumonisin B1 (FB1) treatment” value in [1] and in test [1] (listed as Tfr) were “not significantly altered” and “essentially unaltered”, respectively.
As for “FYHDESEFGHAVEQFGRDVEAVHDL (not fully specified; also: fluorophore, identity and site not given here) [SBD^scr]”, the “internalized punctae (number and intensity)” value in [2] (Oregon Green conjugates, 10 μM each) is given as “much reduced”. Moreover, in [2] (c6 cells (FIG. 1B)), the “concentration needed for binding to cells” value is not below 50 µM.
As for FYHDESEFGHAVEQFGRDVEAVHDL [SBD-scr-myc], the “interaction with GD1b” value is listed as “bind” in [3] (setting [12]) and “interacted approximately as well” in [3] (setting [13]). Further, the results for the “interaction with GM1” value in test [4] (listed as SBD scr-myc) and in test [4] (listed as SBD-scr) were “interact” and “showed signal”, respectively. Besides, the interaction with sphingomyelin result in test [5] (setting [12]) is recorded as “interacted approximately as well”. In addition, in test [6] (setting [12]), the interaction with galactocerebrosides entry is recorded as “bind”. Also, the “interaction with GD1a” value in test [7] (setting [12]) is “bind”; in test [7] (setting [13]), “interacted approximately as well”.
For the molecule CtxB [reference compound], the “interaction with GM1” value in test [4] was “recognize”. Also, in [1], the “uptake after Fumonisin B1 (FB1) treatment” value is “not affected”. The “binding to density-gradient fractions (dot blot)” value in test [8] is given as “typical two-peak distribution”.
For CtxB-Alexa594, the “retention on GM1 liposomes compared with GD1a or no glycolipid” value in test [9] is “retained more strongly”. Also, in [10], the “uptake under cholesterol depletion” value is on record as “reduced rate of uptake”.
Regarding Methyl-β-cyclo-dextrin [MβCD], the reduction of cholesterol in test [11] is 42%; in test [11] (listed as M[…]CD) it was “over 40%”. In addition, the “depletion of total cholesterol” value in [11] (Example 1) worked out at 40%.
For DAEFAHDSGAEVHHQELVFFAEDVG [SBD**-myc], in test [3] (peptide at low concentrations), the “interaction with GD1b” value is “very weakly”. The “interaction with SM” value in test [5] (peptide at 5 μM) is recorded as “fails to show any interaction”; in test [5] (setting [14]), “fails to show any interaction”; in test [5] (setting [15]) it was “not”. Moreover, the interaction with galactocerebrosides entry in test [6] (peptide at low concentrations) is recorded as “interacted”. The “interaction with GD1a” value is listed as “fails to show any interaction” in [7] (peptide at 5 μM), “only weakly interacts” in test [7] (setting [14]) and “bound very weakly” in test [7] (setting [15]).

B1: Lysenin: sphingomyelin-binding protein toxin from earthworm (protein, UniProt O18423 1-297, looked up)
Lysenin: MSAKAAEGYEQIEVDVVAVWKEGYVYENRGSTSVDQKITITKGMKNVNSETRTVTATHSIGSTISTGDAFEIGSVEVSYSHSHEESQVSMTETEVYESKVIEHTITIPPTSKFTRWQLNADVGGADIEYMYLIDEVTPIGGTQSIPQVITSRAKIIVGRQIILGKTEIRIKHAERKEYMTVVSRKSWPAATLGHSKLFKFVLYEDWGGFRIKTLNTMYSGYEYAYSSDQGGIYFDQGTDNPKQRWAINKSLPLRHGDVVTFMNKYFTRSGLCYDDGPATNVYCLDKREDKWILEVVG
Take B1: the “interaction with Sphingomyelin (spot 5)” value in test [5] (Sphingostrips) was “recognize”. The “binding to density-gradient fractions (dot blot)” value in test [8] is listed as “bound to non-DRM fractions”.
